# Experimental data taken from publication PMC12147034, “Identification of alkynyl nicotinamide HSN748 as a RET solvent-front mutant inhibitor with intracranial efficacy” (RSC Medicinal Chemistry, 2025).
# Tests used:
# [1] = biological target: T1, BaF3/KIF5B-RET (B/KR) cells, RET WT (Homo sapiens, UniProt P07949+P33176); test: Cell viability assay (CellTiter-Glo, 3 days) in B/KR cells; type: cell-based
# T1 construct: FLAG; expressed in transfected cells; host or cells: BaF3
# T1 sequence (P33176+P07949 with tags, fused parts or gaps): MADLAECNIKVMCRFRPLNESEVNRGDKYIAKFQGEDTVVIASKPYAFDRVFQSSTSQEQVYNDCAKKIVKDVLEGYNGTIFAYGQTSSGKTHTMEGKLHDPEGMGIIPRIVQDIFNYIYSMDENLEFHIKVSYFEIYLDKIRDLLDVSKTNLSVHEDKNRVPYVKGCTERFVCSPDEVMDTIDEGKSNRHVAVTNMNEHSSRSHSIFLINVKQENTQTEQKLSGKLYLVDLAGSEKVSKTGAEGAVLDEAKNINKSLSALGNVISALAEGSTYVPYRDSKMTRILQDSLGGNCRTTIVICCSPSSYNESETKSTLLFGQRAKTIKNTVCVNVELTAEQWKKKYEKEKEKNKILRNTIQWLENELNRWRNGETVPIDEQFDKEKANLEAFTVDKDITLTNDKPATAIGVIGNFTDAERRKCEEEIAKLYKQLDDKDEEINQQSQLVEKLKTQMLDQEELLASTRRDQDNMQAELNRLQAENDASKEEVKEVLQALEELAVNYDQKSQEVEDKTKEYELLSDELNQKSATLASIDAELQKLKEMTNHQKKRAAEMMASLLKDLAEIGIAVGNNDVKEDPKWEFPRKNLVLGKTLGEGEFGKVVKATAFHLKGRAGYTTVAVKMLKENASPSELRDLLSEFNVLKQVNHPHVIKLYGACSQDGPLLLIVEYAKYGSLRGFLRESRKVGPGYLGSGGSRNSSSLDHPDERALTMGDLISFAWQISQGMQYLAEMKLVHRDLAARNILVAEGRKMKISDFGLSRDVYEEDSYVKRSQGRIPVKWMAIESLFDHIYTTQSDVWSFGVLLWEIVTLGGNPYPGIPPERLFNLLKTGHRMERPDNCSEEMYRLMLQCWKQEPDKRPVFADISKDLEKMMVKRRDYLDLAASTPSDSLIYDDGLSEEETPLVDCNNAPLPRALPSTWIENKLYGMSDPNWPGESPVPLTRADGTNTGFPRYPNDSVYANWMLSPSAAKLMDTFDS
# Experimental: (§1) BaF3 cell lines expressing a flag-tagged KIF5B-RET (B/KR) and the KIF5B-RET containing G810C, G810R, G810S, V804M, V804L mutations were as reported.[8,13,17,21–23] […] Infected cells were cultured for two weeks, and cells with high GFP intensity were sorted into a 96-well plate (1 cell/well). After the expansion of growing cell lines, they were screened for a high level of luciferase activity by luminescence imaging after exposure to D-luciferin. IMR-90 cells were from ATCC.
# (§2) The TEL-VEGFR2 cDNA was then subcloned into pLentP lentiviral vector.[21] and BaF3/TEL-VEGFR2 (B/TV) cells were generated by infecting BaF3 cells with the lentiviral TEL-VEGFR2 as described. Cell viability assay was performed using CellTiter-Glo reagent (G7573, Promega, Madison, WI, USA) after 3 days of drug treatment as described for BaF3-derived cells and 5 days for IMR-90 cells.
# [2] = biological target: T2, B/KR(G810R) cells, KIF5B-RET G810R (Homo sapiens, UniProt P07949+P33176, G810R); test: Cell viability assay (CellTiter-Glo, 3 days) in B/KR(G810R) cells; type: cell-based
# T2 construct: FLAG; expressed in transfected cells; host or cells: BaF3
# T2 sequence (P07949 713-1063 G810R limits assumed): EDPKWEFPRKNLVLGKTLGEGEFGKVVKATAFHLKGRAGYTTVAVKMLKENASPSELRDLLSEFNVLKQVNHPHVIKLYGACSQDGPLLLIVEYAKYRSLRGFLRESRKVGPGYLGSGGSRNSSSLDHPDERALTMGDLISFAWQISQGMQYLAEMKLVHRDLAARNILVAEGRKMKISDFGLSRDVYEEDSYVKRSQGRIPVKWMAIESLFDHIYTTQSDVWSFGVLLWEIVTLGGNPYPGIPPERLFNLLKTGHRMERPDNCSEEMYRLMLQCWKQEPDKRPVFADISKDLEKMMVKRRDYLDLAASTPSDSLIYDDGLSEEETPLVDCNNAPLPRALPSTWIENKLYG
# Experimental: as §1, §2
# B/KR(G810C) CDX tumors = test: Subcutaneous B/KR(G810C) CDX tumor study; type: in vivo, mice; settings: 25 mg kg^-1, qd; for effect on s.c. B/KR(G810C) tumor growth: mice; for tumor sizes at necropsy and RET phosphorylation in tumor lysates: dissected tumors, immunoblotting
# Experimental: Fig. 2 Anti-tumor activity of alkynyl nicotinamide compounds on subcutaneous […]. Mice with tumors (6 mice/group) were treated with indicated compound (25 mg kg^−1, qd) or vehicle by oral gavage. The vehicle-treated mice were as reported[13] and were performed in parallel with other treatments in the same experiment. (A) Tumor dimensions were measured with a caliper and the sizes were calculated as tumor size = (length × width × width)/2. The data are mean ± SD. (B) Mouse body weights were measured on the indicated days. (C) Images of dissected tumors collected at necropsy. (D) Immunoblotting of tumor tissue samples with the indicated antibodies. […] The measure "Body weight" comes from the axis title.
# All animal procedures were performed in accordance with the Guidelines for Care and Use of Laboratory Animals of University of Oklahoma Health Sciences, Purdue University, or the MD Anderson Cancer Center and approved by the Animal Ethics Committee of University of Oklahoma Health Sciences, Purdue University, or the MD Anderson Cancer Center. B/KR(G810C) cells were tested free of mycoplasma and mouse pathogens. Subcutaneous B/KR(G810C) CDX experiment was performed in parallel with other compounds reported previously.[13] Briefly, B/KR(G810C) cells (1 × 10^7 cells/0.1 ml per each) were inoculated s.c. into the right flank of 5-week-old female SHO mice (Charles Rivers, Wilmington, MA, USA). After measurable tumors were formed, mice were treated with test compounds or vehicle by oral gavage as specified in Fig. 2. Tumor size and animal body weight were measured with a caliper and a scale as described.[8,13]
SMILES,IC50 [1],IC50 [2],effect on s.c. B/KR(G810C) tumor growth (B/KR(G810C) CDX tumors; oral gavage),tumor sizes at necropsy and RET phosphorylation in tumor lysates (B/KR(G810C) CDX tumors),"weight loss (B/KR(G810C) CDX tumors; oral gavage, mice with s.c. B/KR(G810C) tumors)"
CN1CCN(Cc2ccc(NC(=O)c3cncc(C#Cc4cnc5cccnn45)c3)cc2C(F)(F)F)CC1 [HSN748],4.05 ± 0.18 nM,20.6 ± 1.42 nM,caused tumor regression,more effective in reducing tumor sizes and inhibiting RET phosphorylation,–
"CCOc1ccc2ncc(C#Cc3cncc(C(=O)Nc4ccc(CN5CCN(C)CC5)c(C(F)(F)F)c4)c3)n2n1 [HSND14, 5-((6-Ethoxyimidazo[1,2-b]pyridazin-3-yl)ethynyl)-N-(4-((4-methylpiperazin-1-yl)methyl)-3-(trifluoromethyl)phenyl)nicotinamide]",4.02 ± 0.19 nM,33 ± 0.67 nM,caused tumor regression,more effective in reducing tumor sizes and inhibiting RET phosphorylation,Weight loss was observed
"Cc1n[nH]c2ncc(C#Cc3cncc(C(=O)Nc4ccc(CN5CCN(C)CC5)c(C(F)(F)F)c4)c3)cc12 [HSND19, 5-((3-Methyl-1H-pyrazolo[3,4-b]pyridin-5-yl)ethynyl)-N-(4-((4-methylpiperazin-1-yl)methyl)-3-(trifluoromethyl)phenyl)nicotinamide]",1.95 ± 0.12 nM,23.1 ± 1.39 nM,–,–,–
